“Also recorded” adds a separate entry of the source. Like-named read-outs stand apart in the source and are kept apart here.
Key:
[1] = Antimicrobial activity / minimum inhibitory concentrations on seven strains of bacteria; format: cell-based; conditions: read-out: MIC values
Protocol: (§1) Seven strains of bacteria were used in the assessment of the antimicrobial activity of the ILs claimed: 4 gram negative and three gram positive as shown below.
(§2) A wide concentration range was tested (0-20000 μg/ml). The concentrations screened for antibacterial activity are generally from 2 μg/ml to 1000 μg/ml (Table 6). […] The concentration range screened for the ILs containing ethers was up to 20000 μg/ml. At these high concentrations a lack of antibacterial activity is a significant result.

[2] = test system: Pseudomonas aeruginosa, Escherichia coli, Klebsiella sp., Salmonella sp., Staphylococcus aureus, Enterococcus sp., Bacillus subtilis; assay: as above; format: cell-based; conditions: seven strains of bacteria
Protocol: as §1, §2

P. aeruginosa = assay: Percentage kill of bacteria by KG20; format: cell-based, Pseudomonas aeruginosa
Description: (§3) A test reference study with 1-methyl-3-decyloxy-carbonyl methylimidazole bromide salt KG20, known to be toxic due to the long alkyl chain, has been completed to provide reference data. This experiment compares, for the same side chain length, the impact of the presence of the oxygen (e.g. KG15) on toxicity.

E. coli = assay: Percentage kill of bacteria by KG20; format: cell-based, Escherichia coli
Description: as §3

S. aureus = assay: Percentage kill of bacteria by KG20; format: cell-based, Staphylococcus aureus
Description: as §3

Enterococcus sp. = assay: Percentage kill of bacteria by KG20; format: cell-based
Description: as §3

Klebsiella sp. = assay: Percentage kill of bacteria by KG20; format: cell-based
Description: as §3

Salmonella sp. = assay: Percentage kill of bacteria by KG20; format: cell-based
Description: as §3

B. subtilis = assay: Percentage kill of bacteria by KG20; format: cell-based, Bacillus subtilis
Description: as §3

microbes = conditions: literature (Bodor et al.); cited from earlier work
[3] = seven strains, not split, range tested 0-20000 μg/ml

Question: For `CCC(C)OCCOC(=O)Cn1cc[n+](C)c1C.[Br-]` (stereo not shown) [KG16, 2,3-dimethyl-1-(2-[2-butoxy]ethoxycarbonylmethyl)imidazolium bromide], which MIC [1] is on record?
Answer: > 20 mg/mL

Question: What about the “toxicity / antibacterial activity in words” value [2] of the same molecule?
Answer: non-toxic

Question: What does the source list for `COCCOCCOC(=O)Cn1cc[n+](C)c1C.[Br-]` [KG18, 2,3-dimethyl-1-(2-[2-methoxyethoxy]ethoxycarbonylmethyl)imidazolium bromide]?
Answer: MIC [1, 3]: > 20 mg/mL; toxicity / antibacterial activity in words [2]: non-toxic

Question: Which results are given for `CCCCCCCCCCOC(=O)Cn1cc[n+](C)c1.[Br-]` [KG20, 3-methyl-1-(decanoxycarbonylmethyl)imidazolium bromide]?
Answer: Percentage kill (P. aeruginosa; 3.9 μg/ml): 0%; Percentage kill (P. aeruginosa; 7.8 μg/ml): 0%; Percentage kill (P. aeruginosa; 15.62 μg/ml): 0%; Percentage kill (P. aeruginosa; 31.25 μg/ml): 6%; Percentage kill (P. aeruginosa; 62.5 μg/ml): 0%; Percentage kill (P. aeruginosa; 125 μg/ml): 55.5%; Percentage kill (P. aeruginosa; 250 μg/ml): 82%; Percentage kill (P. aeruginosa; 500 μg/ml): 82%; Percentage kill (P. aeruginosa; 1000 μg/ml): 100%; Percentage kill (E. coli; 3.9 μg/ml): 10%; Percentage kill (E. coli; 7.8 μg/ml): 8.5%; Percentage kill (E. coli; 15.62 μg/ml): 17%; Percentage kill (E. coli; 31.25 μg/ml): 28%; Percentage kill (E. coli; 62.5 μg/ml): 37%; Percentage kill (E. coli; 125 μg/ml): 92%; Percentage kill (E. coli; 250 μg/ml): 92%; Percentage kill (E. coli; 500 μg/ml): 82%; Percentage kill (E. coli; 1000 μg/ml): 91%; Percentage kill (S. aureus; 3.9 μg/ml): 66%; Percentage kill (S. aureus; 7.8 μg/ml): 90%; Percentage kill (S. aureus; 15.62 μg/ml): 88.2%; Percentage kill (S. aureus; 31.25 μg/ml): 86.4%; Percentage kill (S. aureus; 62.5 μg/ml): 90.3%; Percentage kill (S. aureus; 125 μg/ml): 80.7%; Percentage kill (S. aureus; 250 μg/ml): 93.8%; Percentage kill (S. aureus; 500 μg/ml): 96%; Percentage kill (Enterococcus sp.; 3.9 μg/ml): 6.5%; Percentage kill (Enterococcus sp.; 7.8 μg/ml): 6%; Percentage kill (Enterococcus sp.; 15.62 μg/ml): 23%; Percentage kill (Enterococcus sp.; 31.25 μg/ml): 18.7%; Percentage kill (Enterococcus sp.; 62.5 μg/ml): 48.7%; Percentage kill (Enterococcus sp.; 125 μg/ml): 49.5%; Percentage kill (Enterococcus sp.; 250 μg/ml): 83.4%; Percentage kill (Enterococcus sp.; 500 μg/ml): 84%; Percentage kill (Enterococcus sp.; 1000 μg/ml): 96.4%; Percentage kill (Klebsiella sp.; 3.9 μg/ml): 0%; Percentage kill (Klebsiella sp.; 7.8 μg/ml): 0%; Percentage kill (Klebsiella sp.; 15.62 μg/ml): 0%; Percentage kill (Klebsiella sp.; 31.25 μg/ml): 0%; Percentage kill (Klebsiella sp.; 62.5 μg/ml): 7%; Percentage kill (Klebsiella sp.; 125 μg/ml): 21%; Percentage kill (Klebsiella sp.; 250 μg/ml): 64%; Percentage kill (Klebsiella sp.; 500 μg/ml): 68.2%; Percentage kill (Klebsiella sp.; 1000 μg/ml): 91.8%; Percentage kill (Salmonella sp.; 3.9 μg/ml): 0%; Percentage kill (Salmonella sp.; 7.8 μg/ml): 0%; Percentage kill (Salmonella sp.; 15.62 μg/ml): 0%; Percentage kill (Salmonella sp.; 31.25 μg/ml): 0%; Percentage kill (Salmonella sp.; 62.5 μg/ml): 10%; Percentage kill (Salmonella sp.; 125 μg/ml): 58%; Percentage kill (Salmonella sp.; 250 μg/ml): 73.5%; Percentage kill (Salmonella sp.; 500 μg/ml): 88%; Percentage kill (Salmonella sp.; 1000 μg/ml): 86%; Percentage kill (B. subtilis; 3.9 μg/ml): 0%; Percentage kill (B. subtilis; 7.8 μg/ml): 0%; Percentage kill (B. subtilis; 15.62 μg/ml): 0%; Percentage kill (B. subtilis; 31.25 μg/ml): 0%; Percentage kill (B. subtilis; 62.5 μg/ml): 0%; Percentage kill (B. subtilis; 125 μg/ml): 80.2%; Percentage kill (B. subtilis; 250 μg/ml): 81.5%; Percentage kill (B. subtilis; 500 μg/ml): 83.2%; Percentage kill (B. subtilis; 1000 μg/ml): 100%; toxicity / antibacterial activity in words [2]: toxic to all the different bacteria screened; also recorded: potent antibacterial

Question: With `CCCCOC(=O)C[n+]1ccn(C)c1` [KG34, 3-methyl-1-(butoxycarbonylmethyl)imidazolium octylsulfate] as the molecule, how does the MIC [1, 3] read?
Answer: 5 mg/mL

Question: What about the “toxicity / antibacterial activity in words” value [2] of the same molecule?
Answer: non-toxic

Question: What does the source list for `CCCCCOC(=O)C[n+]1ccn(C)c1` [KG35, 3-methyl-1-(pentoxycarbonylmethyl)imidazolium octylsulfate]?
Answer: MIC [1, 3]: > 20 mg/mL; toxicity / antibacterial activity in words [2]: non-toxic

Question: Which MIC [1, 3] does the source give for `COCCOC(=O)C[n+]1ccn(C)c1` [KG36, 3-methyl-1-(2-[2-methoxy]ethoxycarbonylmethyl)imidazolium octylsulfate] here?
Answer: > 20 mg/mL

Question: And the “toxicity / antibacterial activity in words” value [2]?
Answer: non-toxic

Question: What does the source list for `CCOCCOC(=O)C[n+]1ccn(C)c1` [KG37, 3-methyl-1-(2-[2-ethoxy]ethoxycarbonylmethyl)imidazolium octylsulfate]?
Answer: MIC [1, 3]: > 20 mg/mL; toxicity / antibacterial activity in words [2]: non-toxic

Question: Which results are given for `CCCOCCOC(=O)C[n+]1ccn(C)c1` [KG38, 3-methyl-1-(2-[2-propoxy]ethoxycarbonylmethyl)imidazolium octylsulfate]?
Answer: MIC [1, 3]: > 20 mg/mL; toxicity / antibacterial activity in words [2]: non-toxic

Question: For `CCCCOCCOC(=O)C[n+]1ccn(C)c1` [KG39, 3-methyl-1-(2-[2-butoxy]ethoxycarbonylmethyl)imidazolium octylsulfate], which MIC [1, 3] is on record?
Answer: > 20 mg/mL

Question: And the “toxicity / antibacterial activity in words” value [2]?
Answer: non-toxic

Question: Which MIC [1, 3] does the source give for `COCCOCCOC(=O)C[n+]1ccn(C)c1` [KG40, 3-methyl-1-(2-[2-methoxyethoxy]ethoxycarbonylmethyl)imidazolium octylsulfate] here?
Answer: > 20 mg/mL

Question: And the “toxicity / antibacterial activity in words” value [2]?
Answer: non-toxic

Question: Which results are given for `CCOCCOCCOC(=O)C[n+]1ccn(C)c1` [KG41, 3-methyl-1-(2-[2-ethoxyethoxy]ethoxycarbonylmethyl)imidazolium octylsulfate]?
Answer: MIC [1]: 10 mg/mL; toxicity / antibacterial activity in words [2]: non-toxic

Question: What does the source list for `CCCOCCOCCOC(=O)C[n+]1ccn(C)c1` [KG42, 3-methyl-1-(2-[2-propoxyethoxy]ethoxycarbonylmethyl)imidazolium octylsulfate]?
Answer: MIC [1, 3]: > 20 mg/mL; toxicity / antibacterial activity in words [2]: non-toxic

Question: For `CCCCOCCOCCOC(=O)C[n+]1ccn(C)c1` [KG43, 3-methyl-1-(2-[2-butoxyethoxy]ethoxycarbonylmethyl)imidazolium octylsulfate], which MIC [1, 3] is on record?
Answer: 10 mg/mL

Question: What about the “toxicity / antibacterial activity in words” value [2] of the same molecule?
Answer: non-toxic

Question: Which MIC [1] does the source give for `CCCCOCCOC(=O)C[n+]1ccn(C)c1C` [KG44] here?
Answer: > 20 mg/mL

Question: What about the “toxicity / antibacterial activity in words” value [2] of the same molecule?
Answer: non-toxic

Question: With `COCCOCCOC(=O)C[n+]1ccn(C)c1C` [KG45, 2,3-dimethyl-1-(2-[2-methoxyethoxy]ethoxycarbonylmethyl)imidazolium octylsulfate] as the molecule, how does the MIC [1] read?
Answer: 10 mg/mL

Question: And the “toxicity / antibacterial activity in words” value [2]?
Answer: non-toxic

Question: For `COCCN(CCOC)C(=O)C[n+]1ccn(C)c1` [KG405], which MIC [1, 3] is on record?
Answer: > 20 mg/mL

Question: And the “toxicity / antibacterial activity in words” value [2]?
Answer: low toxicity; also recorded: non-toxic

Question: With `CCCCCCCCCCCC(=O)OCn1cc[n+](C)c1.[Cl-]` [compound 6, 1-[(n-Dodecanoyloxy)methyl]-3-methylimidazolium Chloride] as the molecule, how does the “antimicrobial activity in words” value (microbes) read?
Answer: effective antimicrobial activity at ppm concentrations; also recorded: potent antibacterials
